Results reported in patent publication US12528777B2, “Quinazolinones derivatives for treatment of non-alcoholic fatty liver disease, preparation and use thereof” (Council of Scientific and Industrial Research, priority 2020, dated 2026).
“Also recorded” adds a separate entry of the source.

What was measured:
COP1 = COP1 (Homo sapiens, UniProt Q8NHY2); experiment: In vitro ubiquitination of purified ATGL by COP1 with UbcH6; type: biochemical; design: host or cells: HEK293A; conditions: 5 μM compound, COP1 overexpressing HEK293A lysate
Sequence of COP1 (Q8NHY2 whole entry): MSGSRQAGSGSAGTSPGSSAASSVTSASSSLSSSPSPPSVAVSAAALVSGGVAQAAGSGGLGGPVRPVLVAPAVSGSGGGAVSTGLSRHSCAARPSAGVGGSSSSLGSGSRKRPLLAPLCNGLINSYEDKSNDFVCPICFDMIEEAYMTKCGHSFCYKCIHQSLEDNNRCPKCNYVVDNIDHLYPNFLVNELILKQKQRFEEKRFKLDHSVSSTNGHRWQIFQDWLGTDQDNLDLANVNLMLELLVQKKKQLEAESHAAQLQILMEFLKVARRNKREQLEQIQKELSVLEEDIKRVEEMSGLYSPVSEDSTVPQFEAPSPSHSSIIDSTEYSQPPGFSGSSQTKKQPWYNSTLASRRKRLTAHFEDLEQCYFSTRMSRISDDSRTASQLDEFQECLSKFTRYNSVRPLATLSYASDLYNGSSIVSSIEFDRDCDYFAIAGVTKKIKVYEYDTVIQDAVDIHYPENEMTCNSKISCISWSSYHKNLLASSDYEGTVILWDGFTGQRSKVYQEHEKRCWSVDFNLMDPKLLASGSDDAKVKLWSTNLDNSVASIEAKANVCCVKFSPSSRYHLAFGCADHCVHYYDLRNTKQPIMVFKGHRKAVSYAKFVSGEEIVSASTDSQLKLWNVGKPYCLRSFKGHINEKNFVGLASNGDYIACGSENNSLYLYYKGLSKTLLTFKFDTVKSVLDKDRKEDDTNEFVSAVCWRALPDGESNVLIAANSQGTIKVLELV
Source text: Purification of ATGL protein and obtaining COP1 overexpressing cell lysate: Myc-ATGL plasmid and Myc-DDK-COP1 plasmid ([…] each) were transfected separately in cultured HEK293A cells with the help of Lipofectamine2000 (Invitrogen). Cells were harvested in Lysis Buffer and protein solution was extracted as described previously. The Lysis Buffer used to harvest COP1 overexpressing cells had 0.1% SDS supplemented in it. The concentration of protein was estimated using Bradford assay. For source of E3 ligase, the total cell lysate from COP1 overexpressing HEK293A cells were used.
For purification of Myc-ATGL: 1 ml of Ni^2+-NTA resin (Roche) was taken in a 15 ml centrifuge tube and centrifuged at 2000 RPM for 5 minutes. The upper ethanol layer was discarded and the pellet was washed in 1×PBS twice to remove any remaining traces of ethanol. The pellet was finally washed once with Lysis Buffer for equilibration. […] The tube was incubated overnight at 4° C. in a rotary shaker.
The next day, the solution was centrifuged at 2000 RPM for 10 minutes and the supernatant collected. Lysis Buffer (containing protease inhibitor cocktail twice the previous concentration) was used for washing the beads twice to remove non-specific and unattached reactants in a stringent condition. The beads were finally washed once with 1×PBS containing the same amount of protease inhibitor for equilibration. 300 μl of 500 mM Imidazole (Sigma Aldrich) solution in 1×PBS was added to the resin for elution of ATGL and centrifuged at 2000 RPM for 30 minutes and the eluted protein was collected. To the separated resin, 300 μl of 1M Imidazole solution was added and centrifuged at 2000 RPM for 30 minutes and the second elute was collected. […] of eluted protein from each elution was boiled with 5 μl of Laemmli's buffer at 95° C. for 10 minutes and run in 10% SDS-PAGE gel. The supernatant collected before elution of ATGL and the proteins still attached to the Ni^2+-NTA resin were also run in the SDS-PAGE. The resolved proteins were subsequently transferred on PVDF membranes and probed with anti-myc primary antibody to check the presence of purified ATGL in the elute. Also to check the yield of the purified protein, 40 μl of the elute was run in 10% SDS page and stained with Coomassie Brilliant Blue solution followed by destaining with methanol, glacial acetic acid and water in a 50:40:10 ratio.
For identifying the E2 ubiquitin-conjugating enzyme responsible for ATGL ubiquitination by COP1, an in vitro ubiquitinylation kit (Enzo Life Sciences) was used. The assay was reconstituted as per manufacturer's protocol with the panel of E2 conjugating enzymes provided and other required components at the mentioned concentrations. The reaction was carried out for 6 hours following which it was quenched as per directions with the provided 2× non-reducing gel buffer and then analysed by western blotting.
Having identified the E2 ubiquitin conjugating enzyme as UbcH6, ubiquitination assay was set up in vitro as described previously with 5 μM of the compound 9, 107, 171, 179 and 73 followed by quenching and analysis by western blotting.
Ubiquitination of a target protein is carried out in a three step process involving three different enzymes: E1 ubiquitin activating enzyme, E2 ubiquitin conjugating enzyme and E3 ubiquitin ligase. In humans, there is only one E1 ubiquitin activating enzyme and multiple E2 and E3 enzymes. […]

ATGL = ATGL level in primary mouse hepatocytes (western blot); type: cell-based; conditions: 24 hours
Procedure: To further strengthen the efficiency of the compounds 9 and 107, primary hepatocytes were isolated from mice and these compounds were treated in a dose dependent manner for 24 hours. Primary hepatocytes and adipose tissue explants were isolated from mice and subjected to compound treatment for 24 hours at the doses of 100 nM, 500 nM and 1 μM. Post cell harvesting, western blot was carried out with the lysate to check the ATGL level. ATGL and COP1 antibodies were used. Actin served the purpose of a loading control.
1. Hepatocytes—2-4 months old chow-fed black male mouse (C57bl/6) was sacrificed using chloroform (SRL) and was cleaned with 70% ethanol. […] Blood was drawn from the heart in order to prevent backflow into liver while perfusion. The butterfly cannula was inserted into the PV and 20 ml of HBSS (Hank's Balanced Salt Solution; 5 mM KCl, 0.4 mM KH2PO4, 4 mM NaHCO3, 140 mM NaCl, 0.3 mM Na2HPO4, 6 mM Glucose, HEPES, 0.5 mM MgCl2·6H2O, 0.4 mM MgSO4·7H2O, 0.5 mM EDTA; not containing 1 mM CaCl2)) was allowed to pass through the liver (Perfusion) at a constant flow rate of 3 ml/min, maintained by Masterflex digital peristaltic pump (Cole-Parmer). The IVC was cut as soon as the passage of the buffer through the liver began, so that blood and perfusate from liver is drained through the IVC. The liver blanched and became pale in color upon this treatment.
After the passage of HBSS, 25 ml of Collagenase (Roche) solution (1 mg/ml) in HBSS (containing 1 mM CaCl2)) was allowed to pass through the liver at a constant flow rate of 2 ml/min. After this digestion, the flow was stopped, the cannula removed and the pale and soggy lobes of the liver were gently excised from the body. The gall bladder was removed from the isolated liver. The pieces of digested liver tissue were then minced on a 10 cm culture plate in HBSS (containing 1 mM CaCl2)). The resulting suspension was then passed through a […] cell strainer (SPL) to allow hepatocytes to pass through to the filtrate and retain cellular clumps and undigested tissue. The filtrate was centrifuged at 50 g for 2 minutes at 4° C. […]

Compound | ATGL ubiquitination by COP1 in vitro (COP1) | ATGL level in primary mouse hepatocytes (ATGL)
COCCn1cnc2ccc(NC(=O)Nc3cccc(C(C)=O)c3)cc2c1=O [Compound 9, 1-(3-acetylphenyl)-3-(3-(2-methoxyethyl)-4-oxo-3,4-dihydroquinazolin-6-yl)urea] | effective in reducing the ubiquitination of ATGL by COP1; also recorded: significant efficacy in curbing ATGL ubiquitination by COP1 | increase ATGL level; also recorded: subtle inclination towards increasing ATGL level
COCCn1c(C)nc2ccc(NC(=O)Nc3cccc(C(C)=O)c3)cc2c1=O [Compound 107, 1-(3-acetylphenyl)-3-(3-(2-methoxyethyl)-2-methyl-4-oxo-3,4-dihydroquinazolin-6-yl)urea] | effective in reducing the ubiquitination of ATGL by COP1; also recorded: significant efficacy in curbing ATGL ubiquitination by COP1 | increase ATGL level; also recorded: subtle inclination towards increasing ATGL level
COCC(C)n1cnc2ccc(NC(=O)Nc3cccc(C(C)=O)c3)cc2c1=O (stereo not drawn) [Compound 179, 1-(3-acetylphenyl)-3-(3-(1-methoxypropan-2-yl)-4-oxo-3,4-dihydroquinazolin-6-yl)urea] | effective in reducing the ubiquitination of ATGL by COP1; also recorded: significant efficacy in curbing ATGL ubiquitination by COP1 | –
COCCn1c(CN2CCCCC2)nc2ccc(NC(=O)Nc3cccc(C(C)=O)c3)cc2c1=O [Compound 238, 1-(3-acetylphenyl)-3-(3-(2-methoxyethyl)-4-oxo-2-(piperidin-1-ylmethyl)-3,4-dihydroquinazolin-6-yl)urea] | – | increase ATGL and COP1 levels dose dependently; also recorded: enhance ATGL levels at 1 μM and 5 μM doses
